Results: article PMC5748433, “Study on the effect of EMD386088, a 5-HT6 receptor partial agonist, in enhancing the anti-immobility action of some antidepressants in rats” (Naunyn-Schmiedeberg's Archives of Pharmacology, 2017)
Where “and” joins values, the source holds several entries; their conditions need not be identical. Equal values may be shown once.

How the values were obtained:
[1] = test system: serotonin (5-HT) transporter; set-up: method as in Jastrzębska-Więsek et al. [2013]; conditions: ref Jastrzębska-Więsek et al. [2013]; cited from earlier work
opioid μ receptors = test system: opioid μ receptors; set-up: method as in Jastrzębska-Więsek et al. [2013]; conditions: ref Jastrzębska-Więsek et al. [2013]; cited from earlier work
β1-adrenoceptors = test system: β1-adrenoceptors; set-up: method as in Jastrzębska-Więsek et al. [2013]; conditions: ref Jastrzębska-Więsek et al. [2013]; cited from earlier work
5-HT6 receptor = conditions: cited from earlier work
dopamine D2 = test system: dopamine D2; set-up: method as in Jastrzębska-Więsek et al. [2013]; conditions: ref Jastrzębska-Więsek et al. [2013]; cited from earlier work
rats = test: Open field (OF) test in rats, locomotor/exploratory activity; type: in vivo, rat; conditions: 2.5 mg/kg i.p. 30 min before test, 5-min session, mean ± SEM, 2.5 mg/kg
Description: All drugs were dissolved in distilled water immediately before administration in a volume of 2 mL/kg. All the compounds were administered intraperitoneally (i.p.). […] Control animals received vehicle according to the same schedule.
The experiment was performed using Motor Monitor System (Campden Instruments, Ltd., UK) consisted of two SmartFrame Open Field stations (40 × 40 × 38 cm) with 16 × 16 beams, located in sound attenuating chambers and connected to PC software by control chassis. Individual vehicle- or drug-injected animals were gently placed in the center of the station. An automated motor monitor system recorded ambulation (the number of crossings in X and Y axis), the number of rearing episodes, and total distance covered by a rat for 5 min.
The data of behavioral studies were evaluated using two-way analysis of variance (ANOVA) followed by Bonferroni’s post hoc test, p < 0.05 was considered significant.

[2] = Metabolic stability in rat liver microsomes (RLMs); type: in vitro ADME
Description: The in silico study was performed by MetaSite 5.1.1 provided by Molecular Discovery Ltd. The highest metabolism probability sites and the prediction of the structures of metabolites were analyzed during this study by liver computational model (Cruciani et al. [2005]).
Commercial, pooled, rat liver microsomes (RLMs) were purchased from Sigma-Aldrich (St. Louis, USA). The biotransformations were carried out using 1 mg/mL of RLMs in 200 μL of reaction buffer containing 0.1 M Tris-HCl (pH 7.4) and EMD386088 with final […] 50 μM. The reaction mixture was preincubated at 37 °C for 5 min and then, the reaction was initiated by adding 50 μL of NADPH Regeneration System (Promega, Madison, WI, USA). The reaction was terminated after 30 or 120 min by the addition of 200 μL of cold methanol. The mixture was next centrifuged at 14000 rpm for 15 min and the UPLC/MS analysis of the supernatant was performed. Mass spectra was recorded on UPLC/MS system consisted of a Waters Acquity UPLC (Waters, Milford, USA), coupled to a Waters TQD mass spectrometer (electrospray ionization mode ESI-tandem quadrupole).

recombinant human CYP3A4 = recombinant human CYP3A4 (Homo sapiens, UniProt P08684); conditions: recombinant human CYP3A4, P450-Glo, 0.025 to 25 μM
Sequence of recombinant human CYP3A4 (P08684 whole entry): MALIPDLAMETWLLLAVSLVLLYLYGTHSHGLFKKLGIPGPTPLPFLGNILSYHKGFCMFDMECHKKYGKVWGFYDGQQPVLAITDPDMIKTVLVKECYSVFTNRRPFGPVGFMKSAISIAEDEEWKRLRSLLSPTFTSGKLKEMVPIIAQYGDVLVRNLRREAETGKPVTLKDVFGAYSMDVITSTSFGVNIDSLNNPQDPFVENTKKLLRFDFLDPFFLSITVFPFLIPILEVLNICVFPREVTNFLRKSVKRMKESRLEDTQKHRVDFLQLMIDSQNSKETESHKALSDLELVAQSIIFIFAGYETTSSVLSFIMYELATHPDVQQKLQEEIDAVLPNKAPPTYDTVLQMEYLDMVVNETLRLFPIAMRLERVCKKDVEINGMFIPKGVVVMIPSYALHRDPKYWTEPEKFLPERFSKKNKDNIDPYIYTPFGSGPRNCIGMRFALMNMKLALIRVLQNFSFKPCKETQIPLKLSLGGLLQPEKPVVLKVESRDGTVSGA
Description: The enzymatic reactions were performed in white polystyrene, flat-bottom Nunc™ MicroWell™ 96-Well Microplates (Thermo Scientific, Waltham, MA USA). The luminescence signal was measured with a microplate reader in luminescence mode (EnSpire, PerkinElmer, Waltham, MA USA).

Cc1[nH]c2ccc(Cl)cc2c1C1=CCNCC1.Cl [EMD386088, 5-chloro-2-methyl-3-(1,2,3,6-tetrahydro-4-pyridinyl)-1H-indole hydrochloride]
affinity for serotonin (5-HT) transporter [1]: no affinity | affinity for opioid μ receptors (opioid μ receptors): no affinity | affinity for β1-adrenoceptors (β1-adrenoceptors): no affinity | 5-HT6 receptor functional profile (5-HT6 receptor; in vitro, ref Jastrzębska-Więsek et al. [2013]): potent 5-HT6 receptor partial agonist | EC50 (5-HT6 receptor; read-out: EC50 5-HT6 receptor agonist, ref Mattsson et al. ([2005])): 1 nM | affinity for dopamine D2 (dopamine D2): no affinity | Exploratory activity Ambulation X (rats): 261 ± 29 and 262 ± 28 and 262 ± 35 and 263 ± 28 | Exploratory activity Ambulation Y (rats): 261 ± 31 and 267 ± 37 and 262 ± 23 | Exploratory activity Rearings (rats): 90 ± 3 and 91 ± 4 and 89 ± 4 and 92 ± 9 | Exploratory activity Total distance (cm) (rats): 2677 ± 232 cm and 2721 ± 196 cm and 2644 ± 220 cm and 2722 ± 145 cm | compound metabolized in the presence of RLMs ([2]; RLMs 1 mg/mL, EMD386088 50 μM, after 120 min, 37 °C): ~40% | main metabolic pathway ([2]; in silico (MetaSite) and in vitro (RLMs) studies): dehydrogenation of tetrahydropyridine moiety | influence on CYP3A4 activity (recombinant human CYP3A4): did not influence on CYP3A4 activity
